Results: article PMC11259710, “Distinct roles of the major binding residues in the cation-binding pocket of the melibiose transporter MelB” (The Journal of Biological Chemistry, 2024)
Like-named read-outs stand apart in the source and are kept apart here.

Assays:
[1] = system: D55C MelBSt expressed in E. coli DW2 cells; assay: [3H]melibiose transport assay in intact E. coli DW2 cells, CCCP effect, D55C MelBSt; assay type: cell-based, Salmonella enterica serovar Typhimurium; conditions: D55C mutant
Protocol: (§1) E. coli DW2 cells transformed with a given plasmid were grown in Luria-Bertani (LB) broth with 100 mg/L ampicillin in a 37 °C shaker. The overnight cultures were diluted by 5% to fresh LB broth with 0.5% glycerol and 100 mg/L ampicillin and shaken at 30 °C for 5 h. The cells were washed with 50-ml 100 mM KPi, pH 7.5 three times, followed by washing with the assay buffer (100 mM KPi, pH 7.5, 10 mM MgSO4). The cell pellets were resuspended and adjusted to A420 = 10 (∼0.7 mg proteins/ml) with the assay buffer. The transport assay was performed at 0.4 mM [^3H]melibiose (specific activity of 10 mCi/mmol) in the absence of Na^+ and Li^+ or the presence of Na^+ or Li^+ as described ([4], [35]) to test the three transport model coupling to H^+, Na^+, or Li^+, respectively. The transport time courses were carried out by quenching the cells at zero, 5 s, 10 s, 30 s, 1 m, 2 m, 5 m, 10 m, and 30 m by dilution and fast filtration. The filters were subjected to radioactivity measurements using a liquid scintillation counter.
(§2) The CCCP effect on the transport activity at varied pH conditions in the absence of Na^+ and Li^+ was conducted by incubating the extensively washed Na^+-free, Li^+-free cells with 10 μM CCCP for 10 min prior to the transport assay.
(§3) E. coli DW2 cells expressing the WT MelBSt, D55C, or D59C mutants were prepared as described above. […]

[2] = system: WT MelBSt expressed in E. coli DW2 cells; assay: [3H]melibiose transport assay in intact E. coli DW2 cells, CCCP effect, WT MelBSt; assay type: cell-based, Salmonella enterica serovar Typhimurium
Protocol: as §1, §2, §3

WT MelBSt [3] = biological target: T1, WT MelBSt (Salmonella typhimurium, UniProt P30878); conditions: cited from earlier work
T1 construct: His10 (C); made in house; host or cells: E. coli DW2

D55C MelBSt mutant = biological target: T2, D55C MelBSt mutant (Salmonella typhimurium, UniProt P30878, D55C); assay type: binding, Salmonella enterica serovar Typhimurium; conditions: for Cation binding by ITC: 40 mM NaCl or LiCl titrant, absence or presence of saturating melibiose; for Kd: ITC 25 °C
T2 construct: His10 (C); made in house; host or cells: E. coli DW2
Protocol: All ITC ligand-binding assays were performed with the TA Instruments (Nano-ITC device) as described ([15]), which yields the exothermic binding as a positive peak. […] MelBSt protein samples were buffer-matched to the assay buffer by dialysis.
(§4) All samples were degassed using a TA Instruments Degassing Station (model 6326) for 15 min. During the titration, the heat changes were collected at 25 °C, and data processing was performed with the NanoAnalyze (version 3.7.5 software) provided with the instrument. The normalized heat changes were subtracted from the heat of dilution elicited by the last few injections, where no further binding occurred, and the corrected heat changes were plotted against the mole ratio of titrant versus titrand. The binding association constant (Ka) values were obtained by fitting the data using the one-site independent-binding model included in the NanoAnalyze software (version 3.7.5).

WT MelBSt [4] = biological target: T1, WT MelBSt; assay: ITC ligand-binding assay, purified WT MelBSt; set-up: species or system Salmonella enterica serovar Typhimurium; conditions: for Kd: ITC, read-out: Kd of melibiose binding
Protocol: All ITC ligand-binding assays were performed with the TA Instruments (Nano-ITC device) as described ([15]), which yields the exothermic binding as a positive peak. In a typical experiment, the titrand (MelBSt) placed in the ITC Sample Cell was titrated with the specified titrant Na^+, Li^+, melibiose, or α-NPG (placed in the Syringe) in the assay buffer by an incremental injection of 2-μL aliquots at an interval of 300 s at a constant stirring rate of 250 rpm (nano-ITC). MelBSt protein samples were buffer-matched to the assay buffer by dialysis. For measuring Na^+ or Li^+ binding, 100 mM choline chloride was supplemented into the Na^+-free buffer.
as §4

Asp59 = Asp59 (UniProt position 59, WDAINDPIMGW); assay: ITC; conditions: cited from earlier work
[5] = 10 μM CCCP, all tested external pH conditions, zero, 2 m, 10 m
[6] = cells pre-incubated with 10 μM CCCP, 0.4 mM melibiose, no Na+ and Li+, pH 7.5
[7] = pH 7.5, 100 mM Na+ vs no Na+, from Kd values of ref [8]

N#CC(C#N)=NNc1cccc(Cl)c1 [CCCP, carbonyl cyanide m-chlorophenylhydrazone]
CCCP effect on melibiose transport at varied external pH [1, 5]: completely abolished
CCCP effect on H+-coupled melibiose transport activity [1, 6]: completely inhibited
CCCP effect on melibiose transport at varied external pH [2, 5]: completely abolished
CCCP effect on H+-coupled melibiose transport activity [2, 6]: completely inhibited

[H+] [H^+]
absolute dissociation constant for H+ (pKa value) (WT MelBSt [3]; absence of melibiose, ref [15]): 6.25
Kd (WT MelBSt [3]; absence of melibiose, ref [15], read-out: absolute KD(H+)): 0.56 µM
Cooperativity number (WT MelBSt [3]; melibiose and H+, based on the effect of sugar on the H+ affinity, ref [15]): less than 2
absolute dissociation constant for H+ (pKa value) (WT MelBSt [3]; presence of melibiose, ref [15]): 6.5
Kd (WT MelBSt [3]; presence of melibiose, ref [15], read-out: absolute KD(H+)): 0.26 µM

[Li+] [Li^+]
Cooperativity number (ratio of Kd values of melibiose and cation in absence or presence of the other) (WT MelBSt [3]; melibiose and Li+, ref [6]): ~5
Cation binding by ITC (D55C MelBSt mutant): eliminated the binding

OC[C@H]1O[C@H](OCC2O[C@@H](O)[C@H](O)[C@@H](O)[C@@H]2O)[C@H](O)[C@@H](O)[C@H]1O (stereo partly drawn) [Melibiose, melibiose]
Kd (WT MelBSt [3]; WT MelBSt, pH 7.5, 100 mM Na+, ITC 25 °C, ref [8], read-out: Kd of melibiose binding): 1090 ± 60 µM
Kd (WT MelBSt [3]; WT MelBSt, pH 7.5, no Na+, ITC 25 °C, ref [8], read-out: Kd of melibiose binding): 9280 ± 230 µM
Affinity change of melibiose with Na+ (D55C MelBSt mutant; pH 7.5, 100 mM Na+ vs no Na+): +1.14-fold
Kd (D55C MelBSt mutant; pH 7.5, 100 mM Na+, read-out: Kd of melibiose binding): 5090 ± 150 µM
Kd (D55C MelBSt mutant; pH 7.5, no Na+, read-out: Kd of melibiose binding): 5820 ± 460 µM
Kd (WT MelBSt [4]; pH 6.25, Na+-free buffer): 6190 ± 590 µM
Affinity change of melibiose with pH (WT MelBSt [4]; pH 6.25 vs pH 8.5, no Na+): +1.37-fold
Affinity change of melibiose with Na+ (WT MelBSt [4]; [7]): +8.51-fold
Affinity change of melibiose with Na+ (WT MelBSt [4]; pH 7.5, 100 mM Na+ vs no Na+, from Kd values of ref [8], listed as melibiose): 8.51 fold
Kd (WT MelBSt [4]; pH 8.5, Na+-free buffer): 8500 ± 210 µM

[Na+] [Na^+]
Cooperativity number (ratio of Kd values of melibiose and cation in absence or presence of the other) (WT MelBSt [3]; melibiose and Na+, ref [15]): approximately 8
Cation binding by ITC (D55C MelBSt mutant): eliminated the binding

O=[N+]([O-])c1ccc(O[C@H]2O[C@H](CO)[C@H](O)[C@H](O)[C@H]2O)cc1 [α-NPG, 4-nitrophenyl-α-D-galactopyranoside]
Kd (WT MelBSt [3]; WT MelBSt, pH 7.5, 100 mM Na+, ITC, ref [8], read-out: Kd of α-NPG binding): 25.7 ± 4.42 µM
Kd (WT MelBSt [3]; WT MelBSt, pH 7.5, no Na+, ITC, ref [8], read-out: Kd of α-NPG binding): 43.2 ± 0.62 µM
Kd (D55C MelBSt mutant; pH 7.5, 100 mM Na+, read-out: Kd of α-NPG binding): 13.5 ± 1.38 µM
Kd (D55C MelBSt mutant; pH 7.5, no Na+, read-out: Kd of α-NPG binding): 15.1 ± 1.86 µM
Affinity change of α-NPG with Na+ (WT MelBSt [4]; [7]): + 1.68-fold

Melibiose permease MelB (MelBSt) (Salmonella enterica serovar Typhimurium)
pKa (Asp59; Melibiose present (per the Introduction). The Discussion sentence does not specify the sugar state.): approximately 6.5
pKa (Asp59; No melibiose, no Na+/Li+ bound): 6.25
